# US20180042232A1, “Methods and Compositions for Reducing Anguina Nematode Infestation and Improving Grass Quality” (Bayer CropScience LP, priority 2015, published 2018)
# Experiments:
# Format in all cases: in vivo
# [1] = system: Anguina pacificae nematode galls; test: Nematode gall count of a treated Poa annua green, Pebble Beach
# Description: FIG. 5 sets forth comparative numerical representations of Anguina pacificae nematodes galls found in 100 cc untreated soil, 100 cc soil treated with azadirachtin, and 100 cc soil treated with fluopyram at defined concentrations and doses. In the legend provided, each letter (e.g., “A,” “B,” “C,” etc.) represents a two week interval (e.g., AC=4-week interval).
# Example 2 describes effects of various treatments on nematode population on a Poa annua green at Pebble Beach.
# (§1) Trials are kept free of any pests that can interfere or impact and nematode evaluations and yields.
# (§2) A Poa annua green is treated by spraying the active ingredient on foliage and waiting at least three hours before irrigating into the thatch/mat layer for upward movement into the stem region (just above the crown) where the nematode resides. One or more applications can be made in 2-8 weeks. The interval may be longer if control has not declined, or treatments are to be applied in different seasons (e.g., spring and fall).
# In FIG. 5, a Poa annua green is evaluated and counts of nematode galls per 100 cc soil are taken 87 and 139 days after anthesis (DAA). The first and fifth columns represent nematode gall count at 87 and 139 DAA, respectively, in an untreated sample of turfgrass. The second and sixth columns represent nematode gall count at 87 and 139 DAA, respectively, in turfgrass treated with 250 g ai/ha fluopyram at 4-week intervals. The third and seventh columns represent nematode gall count at 87 and 139 DAA, respectively, in turfgrass treated with 500 g ai/ha fluopyram at 4-week intervals. The fourth and eighth columns represent nematode gall count at 87 and 139 DAA, respectively, in turfgrass treated with 286 g ai/ha azadirachtin applied bi-weekly to the soil. FIG. 5 corresponds to Table 5 (87 DAA) and Table 6 (139 DAA), below.
# [2] = system: Anguina pacificae nematodes; test: Nematode count in soil of a treated Poa annua green, Pebble Beach; settings: 87 DAA, untreated 212.5
# Description: FIG. 1 sets forth comparative numerical representations of Anguina pacificae nematodes found in 100 cc untreated soil, 100 cc soil treated with azadirachtin, and 100 cc soil treated with fluopyram at defined concentrations and doses. In the legend provided, each letter (e.g., “A,” “B,” “C,” etc.) represents a two week interval (e.g., AC=4-week interval).
# Example 1 describes effects of various treatments on nematode population on a Poa annua green at Pebble Beach.
# as §1, §2
# (§3) In FIG. 1, a Poa annua green is evaluated and counts of nematodes per 100 cc soil are taken 87 days after anthesis (DAA). The first column represents nematode count at 87 DAA in an untreated sample of turfgrass. The second column represents nematode count at 87 DAA in turfgrass treated with 250 g ai/ha fluopyram at 4-week intervals. The third column represents nematode count at 87 DAA in turfgrass treated with 500 g ai/ha fluopyram at 4-week intervals. The fourth column represents nematode count at 87 DAA in turfgrass treated with 286 g ai/ha azadirachtin applied bi-weekly to the soil. FIG. 1 corresponds to Table 1, below.
# [3] = system: Poa annua turfgrass; test: Turf quality evaluation of a treated Poa annua green, Pebble Beach; settings: 96 DAA, 1-9 scale (9 = best, 6 = acceptable), untreated 4.8
# Protocol: FIG. 2 sets forth comparative turf quality evaluations of Poa annua turfgrass treated with fluopyram at defined concentrations and doses. In the legend provided, each letter (e.g., “A,” “B,” “C,” etc.) represents a two week interval (e.g., AC=4-week interval).
# as §2
# as §3, with “FIG. 2, turf quality of” for “FIG. 1,”, “evaluated 96 DAA.” for “evaluated and counts of nematodes per 100 cc soil are taken 87 days after anthesis (DAA).”, “represents turf quality” for “represents nematode count”, “at 96” for “at 87”, “FIG. 2” for “FIG. 1”, “Table 2,” for “Table 1,”
# [4] = system: Poa annua turfgrass; test: Crop Circle ACS-430 canopy sensor vegetation index (RVI, NDVI) of a treated Poa annua green, Pebble Beach; settings: for NDVI (Normalized Difference Vegetation Index) / RVI (Ratio Vegetation Index): Pebble Beach, 96 DAA; for NDVI (Normalized Difference Vegetation Index): untreated 0.7064; for RVI (Ratio Vegetation Index): untreated 5.830
# Description: FIG. 3 sets forth comparative RVI measurements of Poa annua turfgrass treated with fluopyram at defined concentrations and doses. In the legend provided, each letter (e.g., “A,” “B,” “C,” etc.) represents a two week interval (e.g., AC=4-week interval).
# FIG. 4 sets forth comparative NDVI measurements of Poa annua turfgrass treated with fluopyram at defined concentrations and doses. In the legend provided, each letter (e.g., “A,” “B,” “C,” etc.) represents a two week interval (e.g., AC=4-week interval).
# as §2
# A Crop Circle ACS-430 active crop canopy sensor (Holland Scientific, Inc.) provided classic vegetation index data (RVI=Ratio Vegetation Indices; NDVI=Normalized difference vegetative index) from the turf canopy. Unlike passive radiometric light sensors, the Crop Circle ACS-430 is not limited by ambient lighting conditions and measurements were made by day due to its unique light source technology. Information produced by the sensor can be utilized to quantify the impact of nutrients, water, disease or other growing conditions on the turf plant. The ratio vegetation index (RVI) is formed by dividing the near infra-red irradiance by the red irradiance. Study plots were scanned at intervals to collect this quantitative data. The normalized difference vegetative index (NDVI) is calculated as follows: […]
# where VIS and NIR stand for the spectral reflectance measurements acquired in the visible (red) and near-infrared regions, respectively.
# as §3, with “FIG. 3, RVI of” for “FIG. 1,”, “evaluated 96 DAA.” for “evaluated and counts of nematodes per 100 cc soil are taken 87 days after anthesis (DAA).”, “represents RVI” for “represents nematode count”, “at 96” for “at 87”, “FIG. 3” for “FIG. 1”, “Table 3,” for “Table 1,”
# as §3, with “FIG. 4, NDVI of” for “FIG. 1,”, “evaluated 96 DAA.” for “evaluated and counts of nematodes per 100 cc soil are taken 87 days after anthesis (DAA).”, “represents NDVI” for “represents nematode count”, “at 96” for “at 87”, “FIG. 4” for “FIG. 1”, “Table 4,” for “Table 1,”
# [5] = system: Anguina pacificae nematode galls; test: Nematode gall count of a treated Poa annua green, The Links at Spanish Bay; settings: 171 DAA, untreated 22.8
# Description: FIG. 6 sets forth comparative numerical representations of Anguina pacificae nematode galls found in 100 cc untreated soil, 100 cc soil treated with azadirachtin+cimectacarb, and 100 cc soil treated with fluopyram at defined concentrations and doses. In the legend provided, each letter (e.g., “A,” “B,” “C,” etc.) represents a two week interval (e.g., AC=4-week interval).
# Example 3 describes effects of various treatments on nematode population on a Poa annua green at The Links at Spanish Bay.
# as §1, §2
# In FIG. 6, a Poa annua green is evaluated and counts of nematode galls per 100 cc soil are taken 171 days after anthesis (DAA). The first column represents nematode count at 171 DAA in an untreated sample of turfgrass. The second column represents nematode count at 171 DAA in turfgrass treated with 250 g ai/ha fluopyram at 4-week intervals. […]
# [6] = system: Poa annua turfgrass; test: Turf quality evaluation of a treated Poa annua green, The Links at Spanish Bay; settings: 179 DAA, 0-10 scale (10 = best), untreated 5.5
# Protocol: FIG. 7 sets forth comparative turf quality evaluations of Poa annua turfgrass treated with fluopyram at defined concentrations and doses. In the legend provided, each letter (e.g., “A,” “B,” “C,” etc.) represents a two week interval (e.g., AC=4-week interval).
# as §2
# as §3, with “FIG. 7, turf quality of” for “FIG. 1,”, “evaluated 179 DAA.” for “evaluated and counts of nematodes per 100 cc soil are taken 87 days after anthesis (DAA).”, “represents turf quality” for “represents nematode count”, “at 179” for “at 87”, “FIG. 7” for “FIG. 1”, “Table 8,” for “Table 1,”
# [7] = 286 g ai/ha applied bi-weekly to the soil
# [8] = 250 g ai/ha at 4-week intervals
# [9] = 500 g ai/ha at 4-week intervals
smiles,measurement,setting,value
C/C=C(\C)C(=O)O[C@H]1C[C@@H](OC(C)=O)[C@@]2(C(=O)OC)CO[C@H]3[C@@H](O)[C@@](C)([C@]45O[C@@]4(C)[C@H]4C[C@@H]5O[C@@H]5OC=C[C@@]54O)[C@H]4[C@]1(CO[C@]4(O)C(=O)OC)[C@@H]32 [azadirachtin],Nematode galls/100 cc soil,"[1]; 286 g ai/ha applied bi-weekly to the soil, 87 DAA, untreated 31",34 galls/100 cc soil
same,Nematode galls/100 cc soil,"[1]; 286 g ai/ha applied bi-weekly to the soil, 139 DAA, untreated 19",16 galls/100 cc soil
same,Nematodes/100 cc soil,[2]; [7],270 nematodes/100 cc soil
same,Turf Quality,[3]; [7],4.8
same,NDVI (Normalized Difference Vegetation Index),[4]; [7],0.6865
same,RVI (Ratio Vegetation Index),[4]; [7],5.425
"O=C(NCCc1ncc(C(F)(F)F)cc1Cl)c1ccccc1C(F)(F)F [fluopyram, N-{2-[3-chloro-5-(trifluoromethyl)-2-pyridinyl]ethyl}-2-(trifluoromethyl) benzamide]",Nematode galls/100 cc soil,"[1]; 250 g ai/ha at 4-week intervals, 87 DAA, untreated 31",6 galls/100 cc soil
same,Nematode galls/100 cc soil,"[1]; 250 g ai/ha at 4-week intervals, 139 DAA, untreated 19",2 galls/100 cc soil
same,Nematode galls/100 cc soil,"[1]; 500 g ai/ha at 4-week intervals, 87 DAA, untreated 31",3 galls/100 cc soil
same,Nematode galls/100 cc soil,"[1]; 500 g ai/ha at 4-week intervals, 139 DAA, untreated 19",0.5 galls/100 cc soil
same,Nematode galls/100 cc soil,[5]; [8],4.3 galls/100 cc soil
same,Nematode galls/100 cc soil,[5]; [9],1.8 galls/100 cc soil
same,Nematodes/100 cc soil,[2]; [8],17.5 nematodes/100 cc soil
same,Nematodes/100 cc soil,[2]; [9],17.5 nematodes/100 cc soil
same,Turf Quality,[6]; [8],6.0
same,Turf Quality,[6]; [9],8.5
same,Turf Quality,[3]; [8],7.4
same,Turf Quality,[3]; [9],8.1
same,NDVI (Normalized Difference Vegetation Index),[4]; [8],0.7634
same,RVI (Ratio Vegetation Index),[4]; [8],7.475
same,NDVI (Normalized Difference Vegetation Index),[4]; [9],0.7908
same,RVI (Ratio Vegetation Index),[4]; [9],8.598
same,Vegetative index (RVI and NDVI) compared to the untreated control,"[4]; averaged over the course of the study, Poa annua turfgrass",positively enhanced vegetative index
